Laboratory results reported in US20120028917A1, “Use Of N-(4-((3-(2-Amino-4-Pyrimidinyl)-2-Pyridinyl)Oxy)Phenyl)-4-(4-Methyl-2-Thienyl)-1-Phthalazinamine In The Treatment Of Antimitotic Agent Resistant Cancer” (Amgen Inc., priority 2009, published 2012).
Several values for one entry are separate records, joined by “and”; a condition that tells them apart may be missing. Equal entries are not always repeated.

Experiments:
[1] = system: NCI-H460-taxol resistant tumor xenografts; experiment: Growth of established NCI-H460-taxol resistant xenografts (Example 4); format: in vivo, athymic nude mice
Method: To investigate whether AMG 900-induced suppression of aurora kinase activity inhibits cell proliferation, the antitumor efficacy of AMG 900 was evaluated in vivo against NCI-H460-taxol resistant tumor xenografts in athymic nude mice. Mice were dosed PO with AMG 900 (BID) either intermittently or continuously. Mice were dosed IP with paclitaxel (taxol) 5 days/week. An internal Amgen compound was used as a positive control in this study (data not shown). Tumors were measured twice per week. Treatment began on day 12 when the tumors were established. All groups were provided nutritional supplements on a daily basis throughout the study to maintain body weight. AMG 900 (free base) was formulated into suspension to concentrations of 1.5 and 0.3 mg/mL. […] The duration of the dosing phase for AMG 900 was three weeks, and two weeks for the taxol group. The tumors were measured with a digital caliper and the mice were weighed twice per week. Tumor volumes were calculated as follows: […] Tumor inhibition was calculated as follows: […] FIG. 5 illustrates the effects of AMG 900 and Taxol treatment on the growth of established H460-taxol resistant tumors. […] Tumors were measured twice per week. Treatment began 12 days after tumor implantation (arrow) when tumors were approximately 170 mm^3. Mice were dosed PO or IP once or twice daily for 3 weeks. Data represent mean ±SE for each group. *P values (not shown) correspond to statistical difference between groups treated with vehicle and AMG 900 or Taxol analyzed with repeated measure Sheffe's ANOVA over time using […]. The scheduled days listed in the legend represent days/ week. All groups were provided nutritional supplements throughout the study.

HL60 xenograft = experiment: Xenograft tumor growth inhibition (Example 3); format: in vivo, athymic nude mice; conditions: HL60, Leukemia; oral BID, best of intermittent or continuous dose schedule
Method: (§1) To investigate whether AMG 900-induced suppression of aurora kinase activity inhibits cell proliferation, the antiproliferative efficacy of AMG 900 was evaluated in-vivo in multiple human cancer xenograft models, including breast, colon, leukemia, lung, pancreatic, and uterine cancer models, grown in athymic nude mice. Mice were administered AMG 900 orally at 3.75, 7.5, or 15 mg/kg BID for 2 consecutive days per week or 3 mg/kg BID everyday for the duration of the study beginning when tumors were established. The reagents, solutions, equipment, formulation of AMG 900, tumor volume measurements and calculations were generally as described in Example 4 below.

MiaPaCa2 xenograft = experiment: Xenograft tumor growth inhibition (Example 3); format: in vivo, athymic nude mice; conditions: MiaPaCa2, Pancreas; oral BID, best of intermittent or continuous dose schedule
Method: as §1

NCI-H460 xenograft = experiment: Xenograft tumor growth inhibition (Example 3); format: in vivo, athymic nude mice; conditions: NCI-H460, Lung; oral BID, best of intermittent or continuous dose schedule
Method: as §1

MES-SA xenograft = experiment: Xenograft tumor growth inhibition (Example 3); format: in vivo, athymic nude mice; conditions: Uterine, oral BID, best of intermittent or continuous dose schedule
Method: as §1

HCT 116 xenograft = experiment: Xenograft tumor growth inhibition (Example 3); format: in vivo, athymic nude mice; conditions: HCT 116, Colon; oral BID, best of intermittent or continuous dose schedule
Method: as §1

MDA-MB-231 xenograft = experiment: Xenograft tumor growth inhibition (Example 3); format: in vivo, athymic nude mice; conditions: MDA-MB-231, Breast; oral BID, best of intermittent or continuous dose schedule
Method: as §1

Colo 205 xenograft = experiment: Xenograft tumor growth inhibition (Example 3); format: in vivo, athymic nude mice; conditions: Colo 205, Colon; oral BID, best of intermittent or continuous dose schedule
Method: as §1

MES-SA Dx5 xenograft = experiment: Xenograft tumor growth inhibition (Example 3); format: in vivo, athymic nude mice
Method: as §1
(§2) The effect of AMG 900 was tested on the multidrug resistant cell line MES-SA Dx5 grown in vivo as a tumor xenograft. Mice were administered AMG 900 orally at 15 mg/kg BID for 2 consecutive days per week or 3.0 mg/kg BID everyday for the duration of the study. Dosing was initiated when tumors were established (10 days after tumor implantation).
MES-SA Dx5, multi-drug resistant, cells (2×10^6) were injected subcutaneously in the right flank of female athymic nude mice. Tumors were measured twice per week. Treatment began on day 10 when the tumors were ˜100 mm^3. […] P-values correspond to statistical difference between groups treated with vehicle and AMG 900 determined by RMANOVA followed by Dunnett's post-hoc test. […]

HCT15 xenograft = experiment: Xenograft tumor growth inhibition (Example 3); format: in vivo, athymic nude mice; conditions: HCT15, Colon; oral BID, best of intermittent or continuous dose schedule
Method: as §1, §2

[2] = system: NCI-H460-Taxol-r xenograft; experiment: Xenograft tumor growth inhibition (Example 3); format: in vivo, athymic nude mice; conditions: Lung, oral BID, best of intermittent or continuous dose schedule
Method: as §1, §2

HCT116 AZD1152-resistant = experiment: ≧4N DNA content assay (FIG. 6-A); format: cell-based; conditions: Homo sapiens, HCT-116; HCT116 AZD1152-resistant subline; 24 hours; read-out: cellular ≧4N DNA content EC50
Method: Tumor cell lines were obtained from the American Type Culture Collection (ATCC) unless otherwise specified. The MDA-MB-231-PTX and NCI-H460-PTX cell lines were established by growing the cells in the presence of increasing concentrations of paclitaxel over a period of 6 months. The HCT116 AZD1152-resistant cell line was established by growing the cells in the presence of AZD1152 at 80 nmol/L.
Tumor cells were treated with AMG 900, AZD1152, MK-0457, or PHA-739358 (range concentration varied based on potency) for 24 hours and processed for cell-cycle analysis (DNA staining only) as previously described (1). Cells were analyzed on a LSRII flow cytometer using BD FACS Diva software. The concentration-response curves and corresponding EC50 values were calculated using the percentage of cells with ≧4N DNA content versus the DMSO control.
HCT116 cell lines were treated with increasing concentrations of AMG 900 or AZD1152 for 24 hours. Flow cytometry was used to assess the accumulation of cells with ≧4N DNA content expressed as a percentage of the DMSO-treated control (POC). The concentration-response curves and calculated EC50 values were determined from two independent experiments (bars, ±SD).

[3] = 3mpk PO BID 7 days/week × 3 wks
[4] = 15mpk PO BID 2 days ON/5 day OFF/week × 3 wks

Cc1csc(-c2nnc(Nc3ccc(Oc4ncccc4-c4ccnc(N)n4)cc3)c3ccccc23)c1 [AMG 900, N-(4-((3-(2-amino-4-pyrimidinyl)-2-pyridinyl)oxy)phenyl)-4-(4-methyl-2-thienyl)-1-phthalazinamine]
% Inhibition (tumor growth) [1, 3]: 60% and 60.4% | Tumor volume, Mean [1, 3]: 771 mm^3 | Tumor volume, Median [1, 3]: 715.6 mm^3 | % Inhibition (tumor growth) [1, 4]: 66% and 65.7% | Tumor volume, Mean [1, 4]: 689 mm^3 | Tumor volume, Median [1, 4]: 612.5 mm^3 | % TGI (tumor growth inhibition) (HL60 xenograft): 68% | % TGI (tumor growth inhibition) (MiaPaCa2 xenograft): 62% | % TGI (tumor growth inhibition) (NCI-H460 xenograft): 85% | % TGI (tumor growth inhibition) (MES-SA xenograft): 86% | % TGI (tumor growth inhibition) (HCT 116 xenograft): 83% | % TGI (tumor growth inhibition) (MDA-MB-231 xenograft): 82% | % TGI (tumor growth inhibition) (Colo 205 xenograft): 58% | % TGI (tumor growth inhibition) (MES-SA Dx5 xenograft; MES-SA Dx5, Uterine, oral BID, best of intermittent or continuous dose schedule): 73% | tumor growth vs vehicle control (MES-SA Dx5 xenograft; MES-SA Dx5, 15 mg/kg BID 2 consecutive days per week and 3.0 mg/kg BID everyday, p<0.0001): statistically significant tumor growth inhibition | % TGI (tumor growth inhibition) (HCT15 xenograft): 51% | % TGI (tumor growth inhibition) [2]: 66% | EC50 (HCT116 AZD1152-resistant): 5 nM
